The source made the active and inactive calls. The rule behind the calls is not given here.
Experiments:
[1] = biological target: Nitric oxide synthase, inducible (Homo sapiens) (UniProt P35228); test: Inhibition of recombinant N-terminal His-tagged human iNOS expressed in Escherichia coli assessed as L-[3H]-citrulline formation at 1 mM using L-[3H]-arginine as substrate after 30 mins by liquid scintillation spectroscopy
Target sequence in this assay (P35228 whole entry): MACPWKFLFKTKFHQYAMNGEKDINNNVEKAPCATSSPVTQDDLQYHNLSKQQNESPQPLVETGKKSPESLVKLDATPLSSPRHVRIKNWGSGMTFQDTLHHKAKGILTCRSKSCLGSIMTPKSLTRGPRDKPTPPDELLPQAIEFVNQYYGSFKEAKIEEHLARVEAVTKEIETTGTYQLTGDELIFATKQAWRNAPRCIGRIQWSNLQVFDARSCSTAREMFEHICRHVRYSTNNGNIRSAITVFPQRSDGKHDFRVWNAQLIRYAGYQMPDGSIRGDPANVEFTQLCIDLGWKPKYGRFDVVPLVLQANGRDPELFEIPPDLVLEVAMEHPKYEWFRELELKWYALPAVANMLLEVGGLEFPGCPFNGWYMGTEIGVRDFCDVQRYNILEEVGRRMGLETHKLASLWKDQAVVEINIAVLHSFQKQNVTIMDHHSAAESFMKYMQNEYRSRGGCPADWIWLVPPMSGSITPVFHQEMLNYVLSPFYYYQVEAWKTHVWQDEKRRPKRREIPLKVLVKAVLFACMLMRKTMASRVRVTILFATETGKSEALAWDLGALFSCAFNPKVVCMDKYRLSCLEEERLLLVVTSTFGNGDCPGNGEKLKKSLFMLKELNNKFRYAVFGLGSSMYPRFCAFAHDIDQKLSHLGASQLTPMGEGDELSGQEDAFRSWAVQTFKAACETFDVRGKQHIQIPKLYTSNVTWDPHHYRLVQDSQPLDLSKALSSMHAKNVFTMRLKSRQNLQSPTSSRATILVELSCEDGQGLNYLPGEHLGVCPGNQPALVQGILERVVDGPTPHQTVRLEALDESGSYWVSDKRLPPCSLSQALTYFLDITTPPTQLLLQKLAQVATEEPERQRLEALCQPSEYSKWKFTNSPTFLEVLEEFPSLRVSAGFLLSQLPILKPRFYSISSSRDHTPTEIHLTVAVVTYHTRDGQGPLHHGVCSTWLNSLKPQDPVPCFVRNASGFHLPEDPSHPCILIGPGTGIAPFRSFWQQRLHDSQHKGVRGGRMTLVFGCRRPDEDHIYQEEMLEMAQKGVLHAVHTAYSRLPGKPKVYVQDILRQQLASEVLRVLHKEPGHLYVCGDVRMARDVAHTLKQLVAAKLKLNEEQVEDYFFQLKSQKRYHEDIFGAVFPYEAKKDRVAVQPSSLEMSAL

[2] = biological target: Nitric oxide synthase, brain (Homo sapiens) (UniProt P29475); test: Inhibition of recombinant N-terminal His-tagged human nNOS expressed in Escherichia coli assessed as L-[3H]-citrulline formation using L-[3H]-arginine as substrate after 30 mins by liquid scintillation spectroscopy
Chain of Nitric oxide synthase, brain (Homo sapiens) (P29475 whole entry, looked up): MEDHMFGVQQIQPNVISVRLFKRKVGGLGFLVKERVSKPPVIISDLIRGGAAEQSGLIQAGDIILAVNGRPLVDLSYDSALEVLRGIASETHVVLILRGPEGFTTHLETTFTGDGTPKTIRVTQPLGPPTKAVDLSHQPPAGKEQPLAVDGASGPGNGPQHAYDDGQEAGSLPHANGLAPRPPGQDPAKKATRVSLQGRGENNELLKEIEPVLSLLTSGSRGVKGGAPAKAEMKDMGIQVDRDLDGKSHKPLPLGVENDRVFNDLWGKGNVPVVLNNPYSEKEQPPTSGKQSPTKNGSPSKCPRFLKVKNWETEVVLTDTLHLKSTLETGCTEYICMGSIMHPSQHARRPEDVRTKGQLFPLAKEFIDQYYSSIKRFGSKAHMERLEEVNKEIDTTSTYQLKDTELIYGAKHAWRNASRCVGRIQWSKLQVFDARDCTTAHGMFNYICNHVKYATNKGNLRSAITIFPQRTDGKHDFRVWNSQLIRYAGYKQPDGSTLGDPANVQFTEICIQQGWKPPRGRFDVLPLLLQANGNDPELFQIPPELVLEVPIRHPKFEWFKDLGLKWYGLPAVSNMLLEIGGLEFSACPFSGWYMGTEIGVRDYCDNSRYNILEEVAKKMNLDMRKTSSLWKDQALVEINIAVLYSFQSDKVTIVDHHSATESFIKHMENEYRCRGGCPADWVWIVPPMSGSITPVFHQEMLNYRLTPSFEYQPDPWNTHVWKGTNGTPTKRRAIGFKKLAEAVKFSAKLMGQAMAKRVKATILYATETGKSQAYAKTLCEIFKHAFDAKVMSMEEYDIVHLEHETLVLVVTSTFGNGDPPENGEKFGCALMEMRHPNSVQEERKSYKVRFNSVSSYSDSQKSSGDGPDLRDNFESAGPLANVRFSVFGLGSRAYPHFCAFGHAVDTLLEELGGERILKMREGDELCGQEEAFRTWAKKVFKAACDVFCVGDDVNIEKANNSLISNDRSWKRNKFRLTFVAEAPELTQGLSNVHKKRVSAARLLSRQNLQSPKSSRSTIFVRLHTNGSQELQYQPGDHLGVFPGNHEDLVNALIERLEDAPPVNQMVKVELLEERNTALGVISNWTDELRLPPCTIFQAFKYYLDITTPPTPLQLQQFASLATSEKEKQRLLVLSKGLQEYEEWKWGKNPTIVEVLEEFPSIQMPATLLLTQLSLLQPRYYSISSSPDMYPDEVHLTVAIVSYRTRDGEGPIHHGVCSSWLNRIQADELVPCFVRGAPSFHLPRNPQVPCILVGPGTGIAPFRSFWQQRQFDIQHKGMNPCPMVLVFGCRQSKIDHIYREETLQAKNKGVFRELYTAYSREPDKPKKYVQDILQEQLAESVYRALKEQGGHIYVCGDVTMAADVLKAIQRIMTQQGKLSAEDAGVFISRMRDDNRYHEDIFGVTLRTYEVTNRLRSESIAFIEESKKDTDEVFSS

[3] = biological target: Nitric oxide synthase 1 (Homo sapiens) (UniProt P29475); test: Inhibition of recombinant nNOS (unknown origin) assessed as L-[3H]-citrulline formation at 1 mM using L-[3H]-arginine as substrate after 30 mins by liquid scintillation spectroscopy
Chain of Nitric oxide synthase 1 (Homo sapiens) (P29475 whole entry): as the sequence (P29475 whole entry, looked up) above

[4] = biological target: Nitric oxide synthase, inducible (Homo sapiens) (UniProt P35228); test: Inhibition of recombinant iNOS (unknown origin) assessed as L-[3H]-citrulline formation using L-[3H]-arginine as substrate after 30 mins by liquid scintillation spectroscopy
Target sequence in this assay (P35228 whole entry, looked up): as the sequence (P35228 whole entry) above

[5] = biological target: T1, Nitric oxide synthase 3 (Rattus norvegicus) (UniProt Q62600); test: Inhibition of eNOS in Wistar rat aortic rings assessed as suppression of acetylcholine evoked endothelial dependent relaxation of precontracted aortic rings at 100 umol/l after 30 mins
T1 sequence (whole entry): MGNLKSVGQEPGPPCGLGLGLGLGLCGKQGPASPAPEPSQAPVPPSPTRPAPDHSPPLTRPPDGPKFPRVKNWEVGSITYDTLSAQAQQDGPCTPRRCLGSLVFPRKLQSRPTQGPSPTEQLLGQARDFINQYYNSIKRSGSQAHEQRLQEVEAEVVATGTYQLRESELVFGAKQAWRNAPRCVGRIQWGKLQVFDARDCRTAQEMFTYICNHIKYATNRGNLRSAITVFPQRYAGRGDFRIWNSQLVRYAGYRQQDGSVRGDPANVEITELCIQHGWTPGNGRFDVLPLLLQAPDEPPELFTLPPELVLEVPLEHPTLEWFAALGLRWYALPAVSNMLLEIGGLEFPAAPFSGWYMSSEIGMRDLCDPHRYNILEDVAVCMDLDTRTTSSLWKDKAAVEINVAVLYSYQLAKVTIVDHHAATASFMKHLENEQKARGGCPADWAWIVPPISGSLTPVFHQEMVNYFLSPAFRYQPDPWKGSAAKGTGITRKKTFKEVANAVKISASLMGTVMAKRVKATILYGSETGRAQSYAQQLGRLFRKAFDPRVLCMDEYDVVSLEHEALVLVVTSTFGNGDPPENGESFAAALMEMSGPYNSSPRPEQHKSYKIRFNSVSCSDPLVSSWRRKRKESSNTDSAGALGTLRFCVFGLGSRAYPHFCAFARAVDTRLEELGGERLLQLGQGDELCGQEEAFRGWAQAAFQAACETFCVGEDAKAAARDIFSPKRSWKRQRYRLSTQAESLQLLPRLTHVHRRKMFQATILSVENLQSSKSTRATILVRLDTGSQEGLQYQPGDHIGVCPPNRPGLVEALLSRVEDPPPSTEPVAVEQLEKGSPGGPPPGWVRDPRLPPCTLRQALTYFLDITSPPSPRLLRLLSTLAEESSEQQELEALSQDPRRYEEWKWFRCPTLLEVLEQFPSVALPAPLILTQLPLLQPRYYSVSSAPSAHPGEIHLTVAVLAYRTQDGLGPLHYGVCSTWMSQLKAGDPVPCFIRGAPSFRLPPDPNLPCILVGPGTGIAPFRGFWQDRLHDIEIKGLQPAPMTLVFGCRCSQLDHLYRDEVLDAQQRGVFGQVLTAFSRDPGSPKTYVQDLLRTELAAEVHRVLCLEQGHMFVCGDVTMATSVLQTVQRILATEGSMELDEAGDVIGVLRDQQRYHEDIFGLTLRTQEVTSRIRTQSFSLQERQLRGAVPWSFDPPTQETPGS

[6] = biological target: T1, Nitric oxide synthase 3 (Rattus norvegicus); test: Inhibition of eNOS in Wistar rat aortic rings assessed as effect on acetylcholine evoked endothelial dependent relaxation of precontracted aortic rings at 100 umol/l after 30 mins
HUVEC = test: Cytotoxicity against HUVEC cells assessed as reduction in cell viability at >1 mM after 30 mins by MTT assay; type: cell-based; conditions: human, 0.5 h
[7] = biological target: T2, Nitric oxide synthase 3 (Homo sapiens) (UniProt P29474); test: Inhibition of eNOS in HUVEC cells assessed as A23187 stimulated nitric oxide production at 100 umol/L preincubated for 30 mins using L-arginine as substrate for 5 mins followed A23187 addition measured after 30 mins by DAF2 dye based spectrofluorimetry; type: cell-based
T2 sequence (whole entry): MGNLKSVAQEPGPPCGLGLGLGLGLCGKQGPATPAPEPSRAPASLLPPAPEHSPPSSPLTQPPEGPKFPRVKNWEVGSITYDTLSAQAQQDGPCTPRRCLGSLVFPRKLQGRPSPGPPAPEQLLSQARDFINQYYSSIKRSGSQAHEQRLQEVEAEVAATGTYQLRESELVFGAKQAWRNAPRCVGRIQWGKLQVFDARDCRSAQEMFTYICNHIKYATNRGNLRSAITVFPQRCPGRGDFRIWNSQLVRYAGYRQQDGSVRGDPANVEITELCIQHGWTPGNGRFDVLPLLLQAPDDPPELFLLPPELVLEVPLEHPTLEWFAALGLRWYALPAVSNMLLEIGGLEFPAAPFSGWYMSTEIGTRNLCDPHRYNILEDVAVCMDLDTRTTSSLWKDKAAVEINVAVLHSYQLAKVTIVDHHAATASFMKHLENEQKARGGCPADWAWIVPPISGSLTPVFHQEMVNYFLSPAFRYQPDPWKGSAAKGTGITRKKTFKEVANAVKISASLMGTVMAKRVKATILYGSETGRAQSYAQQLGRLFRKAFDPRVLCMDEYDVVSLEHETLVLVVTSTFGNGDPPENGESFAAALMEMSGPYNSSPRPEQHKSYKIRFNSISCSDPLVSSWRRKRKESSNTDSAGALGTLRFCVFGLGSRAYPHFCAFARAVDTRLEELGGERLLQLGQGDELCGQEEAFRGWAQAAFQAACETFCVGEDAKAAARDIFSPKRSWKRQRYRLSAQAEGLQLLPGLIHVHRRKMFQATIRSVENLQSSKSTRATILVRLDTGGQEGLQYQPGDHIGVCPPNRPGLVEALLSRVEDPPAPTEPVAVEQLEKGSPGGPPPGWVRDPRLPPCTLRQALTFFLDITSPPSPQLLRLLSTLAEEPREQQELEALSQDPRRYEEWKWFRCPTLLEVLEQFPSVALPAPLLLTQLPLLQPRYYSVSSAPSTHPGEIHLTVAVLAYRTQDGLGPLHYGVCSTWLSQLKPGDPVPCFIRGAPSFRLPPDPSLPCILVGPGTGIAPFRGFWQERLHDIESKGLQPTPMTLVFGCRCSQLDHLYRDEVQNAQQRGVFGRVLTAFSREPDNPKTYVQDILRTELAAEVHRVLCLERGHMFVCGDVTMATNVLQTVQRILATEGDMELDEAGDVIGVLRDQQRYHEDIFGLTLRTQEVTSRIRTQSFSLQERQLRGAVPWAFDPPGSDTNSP

Compound	inhibition [1] [%]	inhibition [3] [%]	other results
Nc1ccc(Cl)cc1C(=O)CCNC(=O)c1ccccc1	26.6		
CCCNC(=S)NCCC(O)c1cc(Cl)ccc1N (stereo unspecified)	55	32.4	IC50 [2]: > 1000 µM; IC50 [4]: 860 µM
CCNC(=O)NCCC(O)c1cc(Cl)ccc1N (stereo unspecified)	33.9	15.2	
CNC(=S)NCCC(O)c1cc(Cl)ccc1N (stereo unspecified)	22.1	70.5	IC50 [2]: 710 µM; IC50 [4]: > 1000 µM
COc1ccc(N)c(C(=O)CCNC(=O)C2CC2)c1	2.66		
CCNC(=O)NCCC(O)c1cc(OC)ccc1N (stereo unspecified)	26.6	43	
CCNC(=O)NCCC(O)c1ccccc1N (stereo unspecified)	18.3	7.81	
CCNC(=O)NCCC(=O)c1cc(Cl)ccc1N	78.6	9.86	
CCCC(=O)NCCC(=O)c1cc(OC)ccc1N	7.35		
CCC(=O)NCCC(=O)c1cc(OC)ccc1N	0.24		
COc1ccc(N)c(C(=O)CCNC(=O)C2CCCC2)c1	0.61		
Nc1ccccc1C(O)CCNC(=O)Nc1ccccc1 (stereo unspecified)	27.9	17.7	
Nc1ccc(Cl)cc1C(O)CCNC(=O)Nc1ccccc1 (stereo unspecified)	3.11	38.6	
COC(=O)[C@@H](N)CCCNC(=N)N[N+](=O)[O-]			inhibition [5]: Active
CNC(=S)NCCC(O)c1cc(OC)ccc1N (stereo unspecified)	76.5	80.5	inhibition [6]: inactive; Activity (HUVEC): 20%; IC50 [2]: 130 µM; inhibition [7]: inactive; IC50 [4]: 180 µM
CCNC(=S)NCCC(O)c1cc(Cl)ccc1N (stereo unspecified)	60.4	70.6	IC50 [2]: 770 µM; IC50 [4]: 800 µM

Compound	inhibition [1] [%]	inhibition [3] [%]	other results
CC(=O)NCCC(=O)c1cc(Cl)ccc1N	19.7		
COc1ccc(N)c(C(=O)CCNC(=O)C2CCCCC2)c1	9.24		
Nc1ccc(Cl)cc1C(=O)CCNC(=O)C1CC1	5.37		
CCCNC(=O)NCCC(O)c1ccccc1N (stereo unspecified)	19	7	
COc1ccc(N)c(C(=O)CCNC(=O)c2ccccc2)c1	10.9		
CCCNC(=O)NCCC(O)c1cc(OC)ccc1N (stereo unspecified)	14.7	15.8	
COc1ccc(N)c(C(=O)CCNC(=O)C2CCC2)c1	0.01		
CCCNC(=S)NCCC(O)c1ccccc1N (stereo unspecified)	31.1	51.7	IC50 [2]: 880 µM; IC50 [4]: > 1000 µM
CCNC(=S)NCCC(O)c1ccccc1N (stereo unspecified)	19.4	44.8	
COc1ccc(N)c(C(=O)CCNC(C)=O)c1	30.7		
CCCNC(=O)NCCC(O)c1cc(Cl)ccc1N (stereo unspecified)	19.6	23.8	
CNC(=S)NCCC(O)c1ccccc1N (stereo unspecified)	20.7	70.2	IC50 [2]: 350 µM; IC50 [4]: > 1000 µM
CCCCC(=O)NCCC(=O)c1cc(OC)ccc1N	14.1		
CCCNC(=S)NCCC(O)c1cc(OC)ccc1N (stereo unspecified)	25.4	6.02	
COc1ccc(N)c(C(O)CCNC(=O)Nc2ccccc2)c1 (stereo unspecified)	12.3	12.1	
CNC(=S)NCCC(=O)c1cc(OC)ccc1N	78.2	46	
